Reference: paper PMC8386742, “Discovery of N-aryl sulphonamide-quinazoline derivatives as anti-gastric cancer agents in vitro and in vivo via activating the Hippo signalling pathway” (Journal of Enzyme Inhibition and Medicinal Chemistry, 2021)

Key:
HCT-116 cells = test: MTT antiproliferative assay, HCT-116 cells; type: cell-based, human; settings: Homo sapiens, HCT-116, 48 h, exposure for 48 h
Method: (§1) The in vitro antiproliferative activities of new target compounds 6a–6g, 9a–9i, 10a–10j, 11a–11j, and 14a–14d were evaluated against four human cancer cell lines (MGC-803, PC-3, HCT-116, and MCF-7) using MTT assay and 5-FU as a positive drug. The following Tables 1–[4] depicted the results of in vitro antiproliferative activity.
(§2) Cell lines used were cultured in humidified incubator in a humidified atmosphere of 5% CO2 and 95% air. The RPMI-1640 medium was supplemented with 10% foetal bovine serum, penicillin (100 U/ml) and streptomycin (0.1 mg/ml).
(§3) Cell lines were seeded into 96-well plates and incubated for 24 h. Then cells were treated with different concentrations of compounds. And after another 48 h, MTT reagent (20 μL per well) was added to each well and then incubated at 37 °C for 4 h. After the suspension was discarded, formazan was then dissolved with DMSO. Absorbencies of formazan solution were measured at 490 nm. The IC50 values of tested compounds were calculated by SPSS version 17.0.

PC-3 cells = test: MTT antiproliferative assay, PC-3 cells; type: cell-based, human; settings: Homo sapiens, PC-3, exposure for 48 h
Method: as §1, §2, §3

MGC-803 cells = test: MTT antiproliferative assay, MGC-803 cells; type: cell-based, human; settings: exposure for 48 h
Method: as §1, §2, §3

MCF-7 cells = test: MTT antiproliferative assay, MCF-7 cells; type: cell-based, human; settings: Homo sapiens, MCF7, 48 h, exposure for 48 h
Method: as §1, §2, §3

Row | Structure (SMILES) | IC50 (HCT-116 cells) | IC50 (PC-3 cells) | IC50 (MGC-803 cells; Homo sapiens, MGC-803, 48 h) | IC50 (MCF-7 cells) | melting point | IC50 (MGC-803 cells)
1 | COc1ccc(CN(c2cc(OC)c(OC)c(OC)c2)S(=O)(=O)c2ccc(F)cc2)cc1 [Compound 6a, 4-Fluoro-N-(4-methoxybenzyl)-N-(3,4,5-trimethoxyphenyl) benzene-sulphonamide] | 16.7 ± 1.03 µM | 18.8 ± 0.31 µM | 6.62 ± 0.82 µM | > 40 µM | 156 to 157 °C | –
2 | COc1ccc(CN(c2cc(OC)c(OC)c(OC)c2)S(=O)(=O)c2ccc(Cl)cc2)cc1 [Compound 6b, 4-Chloro-N-(4-methoxybenzyl)-N-(3,4,5-trimethoxyphenyl) benzene-sulphonamide] | > 40 µM | > 40 µM | > 40 µM | > 40 µM | 166 to 167 °C | –
3 | COc1ccc(CN(c2cc(OC)c(OC)c(OC)c2)S(=O)(=O)c2ccc(C)cc2)cc1 [Compound 6c] | 6.18 ± 0.61 µM | 8.81 ± 0.98 µM | 4.32 ± 0.65 µM | 11.2 ± 1.02 µM | – | –
4 | COc1ccc(CN(c2cc(OC)c(OC)c(OC)c2)S(=O)(=O)c2ccccc2)cc1 [Compound 6d] | > 40 µM | > 40 µM | > 40 µM | > 40 µM | – | –
5 | COc1ccc(CN(c2cc(OC)c(OC)c(OC)c2)S(=O)(=O)c2ccc(OC)cc2)cc1 [Compound 6e, 4-Methoxy-N-(4-methoxybenzyl)-N-(3,4,5-trimethoxyphenyl) benzene-sulphonamide] | 3.48 ± 1.22 µM | 4.01 ± 1.67 µM | 2.86 ± 1.08 µM | 7.68 ± 1.82 µM | 179 to 180 °C | –
6 | COc1ccc(CN(c2cc(OC)c(OC)c(OC)c2)S(=O)(=O)c2cccs2)cc1 [Compound 6f, N-(4-methoxybenzyl)-N-(3,4,5-trimethoxyphenyl) thiophene-2-sulphonamide] | 38.1 ± 2.64 µM | 38.7 ± 2.87 µM | 28.3 ± 2.86 µM | 26.1 ± 1.87 µM | – | –
7 | COc1ccc(CN(c2cc(OC)c(OC)c(OC)c2)S(=O)(=O)c2cccnc2)cc1 [Compound 6g, N-(4-methoxybenzyl)-N-(3,4,5-trimethoxyphenyl) pyridine-3-sulphonamide] | > 40 µM | 16.9 ± 1.58 µM | 38.2 ± 1.55 µM | > 40 µM | 162 to 163 °C | –
8 | COc1ccc(S(=O)(=O)N(Cc2ccccc2)c2cc(OC)c(OC)c(OC)c2)cc1 [Compound 9a, N-benzyl-4-methoxy-N-(3,4,5-trimethoxyphenyl) benzene-sulfonamide] | 18.8 ± 1.72 µM | 16.2 ± 1.06 µM | 8.57 ± 1.62 µM | 24.5 ± 0.61 µM | 161 to 162 °C | –
9 | COc1ccc(S(=O)(=O)N(Cc2ccc(Cl)cc2)c2cc(OC)c(OC)c(OC)c2)cc1 [Compound 9b, N-(4-chlorobenzyl)-4-methoxy-N-(3,4,5-trimethoxyphenyl) benzene-sulphonamide] | 23 ± 5.25 µM | 36.1 ± 0.01 µM | 19.2 ± 1.07 µM | 23.4 ± 1.53 µM | 172 to 173 °C | –
10 | COc1ccc(S(=O)(=O)N(Cc2ccc(Br)cc2)c2cc(OC)c(OC)c(OC)c2)cc1 [Compound 9c, N-(4-bromobenzyl)-4-methoxy-N-(3,4,5-trimethoxyphenyl) benzene-sulphonamide] | > 50 µM | 28 ± 2.76 µM | 31.1 ± 0.79 µM | 33.8 ± 1.39 µM | 187 to 188 °C | –
11 | COc1ccc(S(=O)(=O)N(Cc2ccc(C)cc2)c2cc(OC)c(OC)c(OC)c2)cc1 [Compound 9d, 4-Methoxy-N-(4-methylbenzyl)-N-(3,4,5-trimethoxyphenyl) benzene-sulphonamide] | 11.9 ± 2.26 µM | 15.6 ± 1.57 µM | 5.83 ± 1.75 µM | 41.8 ± 0.43 µM | 164 to 165 °C | –
12 | COc1ccc(S(=O)(=O)N(Cc2ccc(OC)c(OC)c2)c2cc(OC)c(OC)c(OC)c2)cc1 [Compound 9e, N-(3,4-dimethoxybenzyl)-4-methoxy-N-(3,4,5-trimethoxyphenyl) benzene-sulphonamide] | 8.6 ± 2.85 µM | 10.2 ± 0.52 µM | 7.92 ± 2.26 µM | 22.9 ± 1.82 µM | 136 to 137 °C | –
13 | COc1ccc(S(=O)(=O)N(Cc2cccnc2)c2cc(OC)c(OC)c(OC)c2)cc1 [Compound 9f, 4-Methoxy-N-(pyridin-3-ylmethyl)-N-(3,4,5-trimethoxyphenyl) benzene-sulphonamide] | 6.92 ± 0.79 µM | 11.3 ± 1.11 µM | 1.31 ± 0.08 µM | 6.31 ± 1.11 µM | 158 to 159 °C | –
14 | COc1ccc(S(=O)(=O)N(Cc2c(C)noc2C)c2cc(OC)c(OC)c(OC)c2)cc1 [Compound 9h, N-((3,5-dimethylisoxazol-4-yl)methyl)-4-methoxy-N-(3,4,5-trimethoxyphenyl) benzene-sulfonamide] | 12.1 ± 0.85 µM | 8.28 ± 3.4 µM | 5.48 ± 0.58 µM | 11.5 ± 1.03 µM | – | –

Second part, the molecule after the results:

Row | IC50 (HCT-116 cells) | IC50 (PC-3 cells) | IC50 (MGC-803 cells; Homo sapiens, MGC-803, 48 h) | IC50 (MCF-7 cells) | melting point | IC50 (MGC-803 cells) | Structure (SMILES)
15 | 16.7 ± 1.03 µM | 28.2 ± 2.12 µM | 6.62 ± 0.82 µM | > 50 µM | 178 to 179 °C | – | COc1cc(N(Cc2nc(C)c3ccccc3n2)S(=O)(=O)c2ccccc2)cc(OC)c1OC [Compound 10a, N-((4-methylquinazolin-2-yl)methyl)-N-(3,4,5-trimethoxyphenyl) benzene-sulphonamide]
16 | 3.84 ± 0.14 µM | 4.72 ± 1.02 µM | 0.92 ± 1.07 µM | 5.46 ± 0.87 µM | 162 to 163 °C | – | COc1cc(N(Cc2nc(C)c3ccccc3n2)S(=O)(=O)c2ccc(F)cc2)cc(OC)c1OC [Compound 10b, 4-Fluoro-N-((4-methylquinazolin-2-yl)methyl)-N-(3,4,5-trimethoxyphenyl) benzene-sulfonamide]
17 | 1.49 ± 0.22 µM | 1.81 ± 0.26 µM | 0.82 ± 0.11 µM | 1.4 ± 0.25 µM | 170 to 171 °C | – | COc1cc(N(Cc2nc(C)c3ccccc3n2)S(=O)(=O)c2ccc(Br)cc2)cc(OC)c1OC [Compound 10c, 4-Bromo-N-((4-methylquinazolin-2-yl)methyl)-N-(3,4,5-trimethoxyphenyl) benzene-sulfonamide]
18 | 18.7 ± 1.27 µM | > 50 µM | > 50 µM | 22.1 ± 0.31 µM | 183 to 184 °C | – | COc1cc(N(Cc2nc(C)c3ccccc3n2)S(=O)(=O)c2ccccc2Cl)cc(OC)c1OC [Compound 10d, 2-Chloro-N-((4-methylquinazolin-2-yl)methyl)-N-(3,4,5-trimethoxyphenyl) benzene-sulfonamide]
19 | 2.48 ± 0.12 µM | 4.01 ± 0.07 µM | 1.04 µM | 1.68 ± 0.12 µM | 182 to 183 °C | 1 ± 0.08 µM | COc1cc(N(Cc2nc(C)c3ccccc3n2)S(=O)(=O)c2ccc(C)cc2)cc(OC)c1OC [Compound 10e, 4-Methyl-N-((4-methylquinazolin-2-yl)methyl)-N-(3,4,5-trimethoxyphenyl) benzene-sulfonamide]
20 | > 50 µM | > 50 µM | > 50 µM | > 50 µM | 154 to 155 °C | – | COc1cc(N(Cc2nc(C)c3ccccc3n2)S(=O)(=O)c2c(C)cc(C)cc2C)cc(OC)c1OC [Compound 10f, 2,4,6-Trimethyl-N-((4-methylquinazolin-2-yl)methyl)-N-(3,4,5-trimethoxyphenyl) benzene-sulfonamide]
21 | 22.4 ± 1.67 µM | 18.9 ± 1.57 µM | 12.8 ± 1.38 µM | 28.1 ± 1.82 µM | 144 to 145 °C | – | COc1cc(N(Cc2nc(C)c3ccccc3n2)S(=O)(=O)c2ccc(C(C)(C)C)cc2)cc(OC)c1OC [Compound 10g, 4-(Tert-butyl)-N-((4-methylquinazolin-2-yl)methyl)-N-(3,4,5-trimethoxyphenyl) benzene-sulfonamide]
22 | 22.9 ± 1.34 µM | 36.6 ± 0.34 µM | 14.2 ± 1.03 µM | 18.5 ± 0.81 µM | 129 to 130 °C | – | COc1ccc(S(=O)(=O)N(Cc2nc(C)c3ccccc3n2)c2cc(OC)c(OC)c(OC)c2)cc1OC [Compound 10h, 3,4-Dimethoxy-N-((4-methylquinazolin-2-yl)methyl)-N-(3,4,5-trimethoxyphenyl)benzene-sulfonamide]
23 | 20.4 ± 1.92 µM | 27.8 ± 2.02 µM | 16.8 ± 1.42 µM | 30.2 ± 1.81 µM | 151 to 152 °C | – | COc1cc(N(Cc2nc(C)c3ccccc3n2)S(=O)(=O)c2cccs2)cc(OC)c1OC [Compound 10i, N-((4-Methylquinazolin-2-yl)methyl)-N-(3,4,5-trimethoxyphenyl)thiophene-2-sulphonamide]
24 | 24.8 ± 2.13 µM | 28.2 ± 1.98 µM | 14.7 ± 1.88 µM | 34.2 ± 1.83 µM | 159 to 160 °C | – | COc1cc(N(Cc2nc(C)c3ccccc3n2)S(=O)(=O)c2ccccn2)cc(OC)c1OC [Compound 10j, N-((4-Methylquinazolin-2-yl)methyl)-N-(3,4,5-trimethoxyphenyl)pyridine-2-sulphonamide]
25 | – | 24.9 ± 1.41 µM | 10.8 ± 1.18 µM | 18.6 ± 1.32 µM | 196 to 197 °C | – | COc1cc(N(Cc2nc(C)c3ccccc3n2)C(=O)c2ccc(C)cc2)cc(OC)c1OC [Compound 11e, 4-Methyl-N-((4-methylquinazolin-2-yl)methyl)-N-(3,4,5-trimethoxyphenyl) benzamide]
26 | 10.4 ± 1.04 µM | 18.7 ± 1.38 µM | 5.82 ± 1.17 µM | 22.4 ± 1.54 µM | – | – | COc1ccc(C(=O)N(Cc2nc(C)c3ccccc3n2)c2cc(OC)c(OC)c(OC)c2)cc1 [Compound 11h, 4-Methoxy-N-((4-methylquinazolin-2-yl)methyl)-N-(3,4,5-trimethoxyphenyl) benzamide]
